Source: patent US20250090699A1, “FAP TARGETING CYCLIC PEPTIDES AND CONJUGATES THEREOF” (Novartis AG, priority 2023, published 2025)
Starred links: 1 amine or outer side, 2 acyl side, 3 side chain; linkers in the order of their positions; H or OH if unused. Non-standard residues stand in square brackets, D forms with d. Residues, ends and D or L forms follow the SMILES beside them. Primed or numbered codes have the meaning given here. *: point of attachment. F(4OEtNHDOTA-Lu) = lutetium complex of (S)-2,2',2''-(10-(2-((2-(4-(2-amino-2-carboxyethyl)phenoxy)ethyl)amino)-2-oxoethyl)-1,4,7,10-tetraazacyclododecane-1,4,7-triyl)triacetic acid (Phe with 4-O-ethylamino-DOTA-Lu), O=C([O-])CN1CCN(CC(=O)[O-])CCN(CC(=O)NCCOc2ccc(C[C@H](N[*:1])C(=O)[*:2])cc2)CCN(CC(=O)[O-])CC1.[Lu+3]; F(4amPEG2NHDOTA-Lu)″ = lutetium (S)-2,2',2''-(10-(1-(4-(2-amino-2-carboxyethyl)phenyl)-3,12-dioxo-5,8-dioxa-2,11-diazatridecan-13-yl)-1,4,7,10-tetraazacyclododecane-1,4,7-triyl)triacetic acid, O=C([O-])CN1CCN(CC(=O)[O-])CCN(CC(=O)NCCOCCOCC(=O)NCc2ccc(C[C@H](N[*:1])C(=O)[*:2])cc2)CCN(CC(=O)[O-])CC1.[Lu+3]; COpipzaa″ = 4-(carboxymethyl)piperazine-1-carbonyl on Lys N6, O=C(O)CN1CCN(C(=O)*)CC1; X4 = 4‑(carboxymethyl)piperazine‑1‑carbonyl, O=C(O)CN1CCN(C(=O)*)CC1; hS(Pr) = O-propyl-L-homoserine, CCCOCC[C@H](N[*:1])C(=O)[*:2]; NMeF = CN[C@@H](Cc1ccccc1)C(=O)O; Ahp(2) = CCCCC[C@H](N)C(=O)O

Tests used:
human FAP [1] = biological target: T1, human FAP (Homo sapiens, UniProt Q12884); assay: Enzymatic FAP competition assay (Z-Gly-Pro-AMC fluorescence), human FAP; format: biochemical; details: read-out: h. FAP, Enz., IC50
T1 construct: the biotinylated His, Avi tag, human FAP (26-760, FAP-H82Q6); His; Avi tag (biotinylated); purchased AcroBiosystems FAP-H82Q6
T1 sequence (Q12884 26-760): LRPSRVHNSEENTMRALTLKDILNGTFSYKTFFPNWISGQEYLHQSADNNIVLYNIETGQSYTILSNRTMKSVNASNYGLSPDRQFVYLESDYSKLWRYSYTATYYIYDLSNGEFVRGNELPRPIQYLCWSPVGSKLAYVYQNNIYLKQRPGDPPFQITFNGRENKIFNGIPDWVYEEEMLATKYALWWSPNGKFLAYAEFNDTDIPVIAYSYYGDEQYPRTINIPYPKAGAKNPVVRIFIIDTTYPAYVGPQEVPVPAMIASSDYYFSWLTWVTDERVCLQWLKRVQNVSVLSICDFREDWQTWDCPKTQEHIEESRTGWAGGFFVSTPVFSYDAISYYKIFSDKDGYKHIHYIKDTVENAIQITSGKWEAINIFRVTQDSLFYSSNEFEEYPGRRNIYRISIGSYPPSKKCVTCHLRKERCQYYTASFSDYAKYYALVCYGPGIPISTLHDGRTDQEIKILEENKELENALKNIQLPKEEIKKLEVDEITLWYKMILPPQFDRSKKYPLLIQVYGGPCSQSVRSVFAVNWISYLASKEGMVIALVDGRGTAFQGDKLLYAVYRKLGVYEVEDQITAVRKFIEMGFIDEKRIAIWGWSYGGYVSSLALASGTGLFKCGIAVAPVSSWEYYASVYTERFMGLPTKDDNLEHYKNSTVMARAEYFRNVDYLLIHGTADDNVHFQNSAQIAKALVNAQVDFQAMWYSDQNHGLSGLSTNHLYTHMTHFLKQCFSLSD
In short: (§1)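 Biotinylated His/Avi-tagged FAP ectodomain (human 26-760, mouse 26-761) at 0.01 nM, preincubated 24 h with peptides (14 concentrations, up to 1 μM) in pH 7.5 phosphate, 150 mM NaCl, 0.05% Tween20, 1% DMSO. Then 50 μM Z-Gly-Pro-AMC, 4 h at 22-24° C; AMC fluorescence (380/460 nm) gave IC50 from duplicate points.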

human FAP [2] = biological target: T1, human FAP; assay: Surface plasmon resonance (SPR) for peptide affinity, human FAP; format: binding; details: read-out: h. FAP, SPR, KD
Procedure: Peptide affinities (KD) were determined by SPR using a Biacore™ 8K device (Cytiva) towards the following proteins: biotinylated His, Avi tag, human FAP (26-760, FAP-H82Q6), biotinylated His, Avi tag, mouse FAP (26-761, FAP-M82Q5), His tag, human DPP4 (34-766, DP4-H82E3), all purchased from AcroBiosystems and His tag, mouse DPP4 (29-760, 954-SE) from R&D Systems. The FAP proteins and their homologous were diluted to a concentration of 2 μg/mL into acetate buffer pH 5.5, then immobilized onto a CM5 sensorchip (Cytiva, BR-1005-30) to reach a response around 2000 R U. The running buffer HBS-EP+pH 7.6 (20× from Teknova CAT. No: H8022) contained 10 mM HEPES pH 7.6, 150 mM NaCl, 3 mM EDTA, 0.05% Tween20 and 2% DMSO. Experiments were carried out at 25° C. using a flow rate of 30 μL/min. Compounds were tested in single cycle kinetic mode at 8 different concentrations. Curve fitting was performed using the Biacore™ 8K evaluation software. The sensorgrams were fitted by applying a 1:1 binding model to calculate kinetic rate constants and equilibrium dissociation constants (KD).
For this assay, the setup had the same conditions (flow rate, running buffer, peptide dilution) as described above for the CM5 method. The oligo CAP reagent obtained in the CAPture Kit (Ref. 28920234) was 1/5 diluted into running buffer and used with a contact time of 300 s at a flow rate of 2 μL/min. The human and mouse FAP constructs described above were used (from AcroBiosystems or produced in house). The FAP proteins were diluted to a concentration of 2 μg/mL into acetate pH 5.5, 0.05% Tween20 and used with a contact time of 600 s at a flow rate of 10 μL/min. The peptides were tested with an association time of 280 s followed by a dissociation time of 3000 s at a flow rate of 30 μL/min. The regeneration was done using the regeneration solution (8 M guanidine-HCl, 1 M NaOH) as obtained with a contact time of 270 s at a flow rate of 10 μL/min. […] The compounds marked with an asterisk were tested against human and mouse DDP4.

mouse FAP [3] = biological target: T2, mouse FAP (Mus musculus, UniProt P97321); assay: Surface plasmon resonance (SPR) for peptide affinity, mouse FAP; format: binding
T2 construct: biotinylated His, Avi tag, mouse FAP (26-761, FAP-M82Q5); His; Avi tag (biotinylated); purchased AcroBiosystems FAP-M82Q5
T2 sequence (P97321 26-761): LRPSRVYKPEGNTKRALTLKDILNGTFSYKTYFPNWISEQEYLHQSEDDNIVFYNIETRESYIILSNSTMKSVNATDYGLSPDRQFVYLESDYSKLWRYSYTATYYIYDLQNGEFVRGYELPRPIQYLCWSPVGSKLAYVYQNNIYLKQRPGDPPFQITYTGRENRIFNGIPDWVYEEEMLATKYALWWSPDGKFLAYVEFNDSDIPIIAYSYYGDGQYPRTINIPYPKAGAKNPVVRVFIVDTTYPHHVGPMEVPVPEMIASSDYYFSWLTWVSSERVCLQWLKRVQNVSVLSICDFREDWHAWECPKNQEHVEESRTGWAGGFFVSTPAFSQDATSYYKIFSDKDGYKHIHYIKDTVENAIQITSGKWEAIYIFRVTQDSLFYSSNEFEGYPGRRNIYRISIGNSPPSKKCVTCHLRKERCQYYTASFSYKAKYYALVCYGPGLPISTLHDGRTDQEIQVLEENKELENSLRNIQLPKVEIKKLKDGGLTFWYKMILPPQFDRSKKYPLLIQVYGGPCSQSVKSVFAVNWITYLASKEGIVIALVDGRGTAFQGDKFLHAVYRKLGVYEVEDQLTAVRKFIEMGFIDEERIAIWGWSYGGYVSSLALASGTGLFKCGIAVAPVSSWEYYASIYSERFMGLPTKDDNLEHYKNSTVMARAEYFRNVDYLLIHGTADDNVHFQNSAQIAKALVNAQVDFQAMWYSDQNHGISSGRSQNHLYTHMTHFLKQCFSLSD
In short: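 Biotinylated His/Avi-tagged FAP ectodomains (human 26-760, mouse 26-761) captured or immobilized on Biacore sensor chips; peptides run at 25 °C in HBS-EP+ pH 7.6 with 2% DMSO, single-cycle kinetics, 8 concentrations. KD from 1:1 binding-model fit of sensorgrams.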

mouse FAP [4] = biological target: T2, mouse FAP; assay: Enzymatic FAP competition assay (Z-Gly-Pro-AMC fluorescence), mouse FAP; format: biochemical; details: read-out: m. FAP, Enz., IC50
In short: as §1

Compound | IC50 (human FAP [1]) | Kd (human FAP [2]) | Kd (mouse FAP [3]) | IC50 (mouse FAP [4])
CCCCC[C@@H]1NC(=O)[C@H](Cc2ccc(O)cc2)NC(=O)[C@H](Cc2ccccc2)N(C)C(=O)CNC(=O)[C@@H]2CCCN2C(=O)[C@H]2CCCN2C(=O)[C@H](CC(=O)O)NC(=O)[C@H](Cc2ccc(O)cc2)NC(=O)CNC(=O)[C@H](Cc2c[nH]c3ccccc23)NC1=O [Example A51, 2-((6S,9S,15S,18S,21S,24S,29aS,34aR)-15-((1H-indol-3-yl)methyl)-24-benzyl-9,21-bis(4-hydroxybenzyl)-25-methyl-5,8,11,14,17,20,23,26,29,34-decaoxo-18-pentyldotriacontahydro-1H,5H-dipyrrolo[1,2-a:1′,2′-b1][1,4,7,10,13,16,19,22,25,28]decaazacyclotriacontin-6-yl)acetic acid] (cyclo(G[NMeF]Y[Ahp(2)]WGYD[dP]P)) | 0.117 nM | 0.163 nM | 0.185 nM | 0.4 nM
K(COpipzaa)-Gly-NMePhe-F(4OEtNHDOTA-Lu)-Ahp-Trp-Gly-Tyr-Asp-D-Pro (cyclo(K(COpipzaa″)G[NMeF][F(4OEtNHDOTA-Lu)][Ahp(2)]WGYD[dP]); also: Lu complex) [Example C25] | 0.098 nM | – | 0.34 nM | 0.35 nM
Pro-Gly-NMePhe-F(4amPEG2NHDOTA-Lu)-hS(Pr)-Trp-Gly-K(COpipzaa)-Asp-D-Pro (cyclo(PG[NMeF][F(4amPEG2NHDOTA-Lu)″][hS(Pr)]WGK(X4)D[dP])) [Example C20] | 0.016 nM | – | < 0.031 nM | 0.03 nM
hSer-Gly-NMe3PyA-F(4amPEG2NHDOTA-Lu)-hS(Pr)-W7N-Gly-K(COpipzaa)-Asp-D-Pro [Example C6] | 0.024 nM | – | < 0.035 nM | 0.049 nM
hSer-Gly-NMePhe-F(4amPEG2NHDOTA-Lu)-hS(Pr)-Trp-Gly-K(COpipzaa)-Asp-D-Pro [Example C4] | 0.011 nM | – | < 0.039 nM | 0.032 nM
